These are literature values, as cited in patent EP4640072A1, “FLEECE MATERIALS TREATED WITH AN ION-PAIRING AGENT AND ORAL PRODUCTS COMPRISING FLEECE MATERIALS TREATED WITH AN ION-PAIRING AGENT” (Nicoventures Trading Limited, priority 2024, dated 2025).

The conditions of data set [1]: lipophilicity of the organic acid; values obtained from PubChem or calculated.
Experiment in data set [2]: not given
The source holds these as a separate data set.

In the next data set the test system is human buccal tissue. Particulars: nicotine solution at pH = 6 relative to nicotine solution at pH 8.1; perfusion cell.

As for `O=C(/C=C/c1ccc(O)c(O)c1)O[C@@H](C(=O)O)[C@@H](O)C(=O)O` [Caftaric acid], the “log(P)*” value in data set [1] was 1.2. On to `CC(C)[C@@H]1CC[C@@H](C)C[C@H]1OC(=O)CCC(=O)O` [monomenthyl succinate], for which the “log(P)*” value in data set [1] is 3. Take ethyl benzoic acid: the “log(P)*” value in data set [1] is reported as 2.9.

With `COC(=O)/C=C/C(C)=C\C=C\C(C)=C\C=C\C=C(C)\C=C\C=C(C)\C=C\C(=O)O` [bixin, (2E,4E,6E,8E,10E,12E,14E,16Z,18E)-20-methoxy-4,8,13,17-tetramethyl-20-oxoicosa-2,4,6,8,10,12,14,16,18-nonaenoic acid], the solubility entry is “soluble in fats and alcohols but insoluble in water”. Moreover, the chemical stability result (when isolated, converts via isomerization into trans-bixin (β-bixin)) is given as “chemically unstable when isolated”. In the case of isopropyl benzoic acid, in data set [1], the “log(P)*” value is recorded as 3.5. As for `CCCCCCCC(=O)O` [octanoic acid], the “log(P)*” value in data set [1] is reported as 3.05. Regarding `CN1CCCC1c1cccnc1` (stereo not shown) [nicotine], the “log Kα1” value in data set [2] (pyridine ring nitrogen) is given as 3.41. Also, the “log Ka2” value in data set [2] (pyrrolidine ring nitrogen) is 8.02. Besides, the “factor by which the rate of diffusion across human buccal tissue was reduced” value in the data set with human buccal tissue is listed as ~ 7. As for `CCCCCCCS(=O)(=O)O` [1-heptanesulfonic acid], the “log(P)*” value in data set [1] is on record as 2.0.

Regarding `CC(/C=C/C=C(C)/C=C/C(=O)O)=C\C=C\C=C(C)\C=C\C=C(C)\C=C\C(=O)O` (stereo in doubt) [norbixin, (2E,4E,6E,8E,10E,12E,14E,16E,18E)-4,8,13,17-tetramethylicosa-2,4,6,8,10,12,14,16,18-nonaenedioic acid], the solubility result is recorded as “water soluble”. Take `CCCCCCCCCCCC(=O)O` [dodecanoic acid]: in data set [1], the “log(P)*” value was 4.6.
